We go through six molecules from US11779565B2, “Small organic molecules for use in the treatment of neuroinflammatory disorders” (THE MEDICAL RESEARCH, INFRASTRUCTURE AND HEALTH SERVICES …, priority 2017, dated 2023).

In assay [1] the test system is P19 cells. As to the kind of experiment: In vitro differentiation assay of P19 cells (MAP-2 positive neurons). The conditions noted are these: RA stimulation alone (5×10^−7 M), day 8. In kind it is cell-based, murine. On the procedure: P19 cells were grown in a-minimum essential medium (aMEM) (Gibco) containing 7.5% calf serum, 2.5% fetal calf serum, and 0.4 μl/ml penicillin—streptomycin (Gibco), at 37° C., 5% CO2. Cells were replenished with fresh medium every 48 h.
The medium, including RA, BMP supplements and SMs, was replenished after 48 h. After 4 days, aggregates which formed during RA treatment were dispersed enzymatically (0.05% v/v trypsin-0.02% v/v EDTA) and mechanically and plated in tissue culture grade dishes. At this stage, cells were cultured in RA-, BMP- and SM-free medium, which was refreshed every 48 h. MAP-2 positive neurons were examined at day 8 (i.e., day 4 post-RA treatment) by immunofluorescence. Briefly, at day 7, cells were re-cultured in 24 well-plates with cover slips at a final concentration of 5×10^4 cells/well. On day 8, cells were washed with PBS, fixed with PFA 4% for 15 min, permeabilized with 0.5% Triton Tx, blocked with 10% FCS, 0.1% BSA and 0.05% Tween for 30 min, and stained with MAP2 rabbit mAb (1:100, D5G1, Cell Signaling) for 1 hr. The second antibody step was performed by labeling with Alexa Fluor® 488-conjugated IgG antibody to rabbit for 1 h (1:1000; Molecular Probes USA).
Next, the effect of the small molecules on neurogenesis in a P19 differentiation model was measured. […] Neuronal differentiation is marked by the expression of the neuronal marker MAP-2, while the addition of BMP-2 reduces the levels of this marker. Addition of the murine anti-BMP-2/4 monoclonal antibody reverses the effect of BMP-2 and induces acquisition of neuronal phenotype. Thus, the effect of SM1, SM7 and SM9 on the expression of the neuronal marker MAP-2 in P19 cells was examined in the presence of RA and BMP-2. Three concentrations of the molecules were tested: 0.625 μM, 1.25 μM and 2.5 μM.

Assay [2] concerns the target T1, BMP-2 (Homo sapiens, UniProt P12643).
T1 construct: purchased R&D Systems
T1 sequence (P12643 283-396): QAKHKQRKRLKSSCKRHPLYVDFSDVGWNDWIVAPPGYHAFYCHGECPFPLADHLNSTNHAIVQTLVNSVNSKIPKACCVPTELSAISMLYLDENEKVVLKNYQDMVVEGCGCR
The experiment in a line: ATDC5 cell based HTS bioassay: ALP production stimulated by BMP-2 and heparin. More on the design: species or system mouse. Particulars: inhibition of BMP-2-stimulated ALP in ATDC5 cells, 48 hours, tested at 0.62-10 μM. On the procedure:
Poly-L-lysine (Sigma-Aldrich) was added to 384-well plates and was removed after 30 min of incubation at RT. An assay medium containing DMEM/F12, 2% FBS, 100 units/ml penicillin, […] streptomycin (Biological industries) was added to each well. […] ATDC5 cells (Sigma-Aldrich) were harvested, re-suspended in assay medium and added to a final concentration of 2000 cells/well. Finally, heparin (Sigma-Aldrich) was added to a final concentration of 2 μg/ml. The cells were incubated for 48 hours at 37° C. with 5% CO2 in a humidified chamber in the presence or absence of potential small molecule inhibitors of BPM-2. After incubation, ALP levels and cell viability were determined using a completely automated protocol. Cells were washed with PBS, lysed using a lysis buffer containing 0.2% Triton X-100 in PBS supplemented with a protease inhibitor cocktail (Sigma-Aldrich) and incubated for 25 min at RT. ALP level was then determined by addition of CDP-Star® chemiluminescent substrate (Sigma-Aldrich) and measurement of luminescence after incubation for 25 min at RT in the dark. Cell viability was finally determined by addition of CellTiter-Glo® reagent (Biological Industries) and luminescence measurement after 10 min of incubation.
An ATDC5 cell based assay for assessing structure-function relationship of BMP-2 and BMP receptor IA was originally described in Keller et al (Nature Structural & Molecular Biology 2004 11, 481-488). In order to screen a large volume of potential therapeutic agents the ATDC5 cell based bioassay for detecting BMP inhibition was adapted for use in high throughput screening. The bioassay is based on the stimulation of alkaline phosphatase (ALP) production in mouse ATDC5 cells by administration of BMP-2 and heparin, and measurement of ALP levels in the presence of the potential inhibitors. […] This was achieved by using CellTiter-Glo® Luminescent Cell Viability Assay for assessing the cells' viability after the luminescent signal by CDP-Star® has faded. The simultaneous assessment of both ALP production and cells' viability was necessary since potentially toxic tested small molecules may lead to reduced ALP levels by cellular cytotoxicity rather than by interference with BMP-2 signaling. […] Particulars of the bioassay are detailed in the Experimental procedures section above.
A library of small molecules (SM) was screened using the High Throughput Screening bioassay described above. About 7600 SMs were screened, from the Maybridge library, which consists of organic “drug-like” compounds, using the pre-plated HitFinder™ Collection. […] The SM were tested at various concentrations, i.e. at 0.62 μM, 1.25 μM, 2.5 μM, 5 μM and 10 μM.

In the case of `CC1=C(/C=C/C(C)=C/C=C/C(C)=C/C(=O)O)C(C)(C)CCC1` [RA, all-trans-retinoic acid, reference compound], in assay [1], the “MAP-2+ cells” value is listed as 73.8±6.5%.
In assay [2], `c1ccc(C2=NNC(c3ccccc3)=NN2)cc1` [SM2, 1,4-Dihydro-3,6-diphenyl-1,2,4,5-tetrazine] returned an IC50 of 8.5 µM.
Still for that read-out and setting: the figure for `CCOC(=O)c1c(NC(=O)c2ccc([N+](=O)[O-])o2)nc(SC)n1Cc1cccs1` [SM3] is 2.6 µM; for `O=C1c2cccc3cc([N+](=O)[O-])cc(c23)C(=O)N1c1ccc(S(=O)(=O)Nc2ccc(C(F)(F)F)cc2)cc1` [SM4, 4-(5-nitro-1,3-dioxobenzo(de)isoquinolin-2-yl)-N-[4-(trifluoromethyl)phenyl]benzenesulfonamide] it is 10 µM; for `CC(=O)NC(=O)CCSc1ccccc1C(=O)NC(C)=O` [SM5, N1-acetyl-2-([3-(acetylamino)-3-oxopropyl]thio)benzamide] it is 3.8 µM.
Same read-out and setting: the value for `C/C(=N\NC(=S)NC(C)(C)C)c1ccc(Oc2c(Cl)cncc2Cl)cc1` [SM8, 1-tert-butyl-3-[E-1-(4-(3,5-dichloropyridin-4-yl)oxyphenyl]ethylideneamino)thiourea] was 2.8 µM.

As a reminder, the IC50 is the concentration that gives 50% inhibition. Read a high IC50 as weaker potency in that assay.
